According to patent US4379159A, “Antiinflammatory 2-substituted-thio-4,5-dihydro-4,5-diaryl-1H-imidazoles” (E. I. Du Pont de Nemours & Company, priority 1980, dated 1983):

Columns and labels:
[1] = tested on: adjuvant-induced arthritis in rats; assay: Established Adjuvant-Induced Arthritis in Rats; type: in vivo, rat (Lewis (Wistar) male rats); settings: oral gavage once daily 7 days (days 14-20), paw volume on day 21; for ED50: Rattus norvegicus, ED50% for decrease from control paw volume, estimated by inspection of dose-response regression lines
adjuvant arthritis = settings: background statement; cited from earlier work
arthritis = settings: background statement; cited from earlier work

Compound: C=CCSC1=NC(c2ccc(Cl)cc2)C(c2ccc(Cl)cc2)N1.Cl (centres unmarked) [Example 2, 4,5-Bis(4-chlorophenyl)-4,5-dihydro-2-(allylthio)-1H-imidazole Hydrochloride]
- percent reduction in paw volume at the indicated dose ([1]; at 25 mg/kg): 28%

Compound: Cl.FC(F)(F)CSC1=NC(c2ccc(Cl)cc2)C(c2ccc(Cl)cc2)N1 (centres unmarked) [Example 3, 4,5-Bis(4-chlorophenyl)-4,5-dihydro-2-(2,2,2-trifluoroethylthio)-1H-imidazole Hydrochloride]
- ED50 [1]: 25 mg/kg

Compound: CSC1=NC(c2ccc(Cl)cc2)C(c2ccc(Cl)cc2)N1.Cl (centres unmarked) [Example 1, 4,5-Bis(4-chlorophenyl)-4,5-dihydro-2-(methylthio)-1H-imidazole Hydrochloride]
- ED50 [1]: 60 mg/kg

Compound: c1ccc([C@H]2CN3CCSC3=N2)cc1 [Levamisole, 2,3,5,6-Tetrahydro-6-phenylimidazole-[2,1-b]thiazole]
- activity in an adjuvant arthritis test (adjuvant arthritis): inactive
- clinical efficacy as an antiarthritic (arthritis): has shown clinical efficacy
